The target in this assay is T1, BaF3 BRAF-KIAA1549 fusion cells (Homo sapiens, UniProt P15056).
T1 construct: The BRAF-KIAA1549 fusion mutant was subcloned into pMXs-IRES-Blasticidin (RTV-016, Cell Biolabs, San Diego, CA); fused on or other part: Q9HCM3 (UPF0606 protein KIAA1549)
Put plainly: BaF3 BRAF-KIAA1549 fusion cell proliferation assay (CellTiterGlo). Conditions: 96 hours incubation, potency code. In kind it is cell-based. The procedure, abridged: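 BaF3 cells stably transduced with a BRAF-KIAA1549 fusion, blasticidin-selected and growing without IL-3, were treated with compound for 96 h in RPMI/10% heat-inactivated FBS. Viability read as ATP content by CellTiterGlo luminescence, normalised to DMSO-treated cells. IC50 by Levenberg-Marquardt fit.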

T1 sequence (P15056 whole entry, change not shown, the tested form may be a part): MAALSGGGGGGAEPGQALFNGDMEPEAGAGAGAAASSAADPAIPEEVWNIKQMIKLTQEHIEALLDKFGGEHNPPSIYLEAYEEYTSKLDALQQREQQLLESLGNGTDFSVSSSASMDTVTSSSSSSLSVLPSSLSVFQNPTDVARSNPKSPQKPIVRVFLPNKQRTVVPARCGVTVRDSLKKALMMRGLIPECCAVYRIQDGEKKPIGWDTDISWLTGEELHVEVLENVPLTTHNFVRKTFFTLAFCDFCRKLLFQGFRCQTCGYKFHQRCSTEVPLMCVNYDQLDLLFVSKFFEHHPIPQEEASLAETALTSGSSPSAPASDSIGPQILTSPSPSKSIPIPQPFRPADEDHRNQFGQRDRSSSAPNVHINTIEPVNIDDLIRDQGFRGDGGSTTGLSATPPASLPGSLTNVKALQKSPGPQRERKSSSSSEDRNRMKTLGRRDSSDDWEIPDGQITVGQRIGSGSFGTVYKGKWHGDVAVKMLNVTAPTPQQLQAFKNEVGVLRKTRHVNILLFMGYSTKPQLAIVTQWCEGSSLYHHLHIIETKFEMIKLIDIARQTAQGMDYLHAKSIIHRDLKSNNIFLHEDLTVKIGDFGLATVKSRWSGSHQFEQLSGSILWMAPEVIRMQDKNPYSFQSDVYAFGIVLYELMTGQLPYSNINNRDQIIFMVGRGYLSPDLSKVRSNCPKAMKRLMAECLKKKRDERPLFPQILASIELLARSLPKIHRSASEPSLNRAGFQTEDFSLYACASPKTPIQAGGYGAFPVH

The term GI50 denotes the concentration giving 50% growth inhibition. High values mean less potent growth inhibition, low ones more potent growth inhibition. `Cc1ccc(NC(=O)c2cc(C(F)(F)F)c(C)cn2)cc1Nc1ncccc1-c1ncnc2[nH]cnc12` [IA-114, N-(3-((3-(9H-purin-6-yl)pyridin-2-yl)amino)-4-methylphenyl)-5-methyl-4-(trifluoromethyl)picolinamide] registered a GI50 below 0.02 µM.

For `Cc1ccc(NC(=O)c2cc(C(F)(F)F)c(F)cn2)cc1Nc1ncccc1-c1ncnc2[nH]cnc12` [IA-115, N-(3-((3-(9H-purin-6-yl)pyridin-2-yl)amino)-4-methylphenyl)-5-fluoro-4-(trifluoromethyl)picolinamide], the concentration for 50% growth inhibition (GI50) is below 0.02 µM. Regarding `Cc1ccc(NC(=O)c2nccc(C(F)(F)F)c2F)cc1Nc1ncccc1-c1ncnc2[nH]cnc12` [IA-116, N-(3-((3-(9H-purin-6-yl)pyridin-2-yl)amino)-4-methylphenyl)-3-fluoro-4-(trifluoromethyl)picolinamide], the concentration for 50% growth inhibition (GI50) was below 0.02 µM. To `Cc1ccc(NC(=O)c2cc(C(F)(F)F)ccn2)cc1Nc1nccc(F)c1-c1ncnc2[nH]cnc12` [IA-117, N-(3-(4-fluoro-3-(9H-purin-6-yl)pyridin-2-ylamino)-4-methylphenyl)-4-(trifluoromethyl)picolinamide] belongs 0.1 to 0.5 µM. To `Cc1ccc(NC(=O)c2cc(C(F)(F)F)ccn2)cc1Nc1ncc(F)cc1-c1ncnc2[nH]cnc12` [IA-118, N-(3-((5-fluoro-3-(9H-purin-6-yl)pyridin-2-yl)amino)-4-methylphenyl)-4-(trifluoromethyl)picolinamide] belongs 0.02 to 0.1 µM; to `Cc1cc(C)c(Nc2ncccc2-c2ncnc3[nH]cnc23)cc1NC(=O)c1cc(C(F)(F)F)ccn1` [IA-119, N-(5-((3-(9H-purin-6-yl)pyridin-2-yl)amino)-2,4-dimethylphenyl)-4-(trifluoromethyl)picolinamide], 0.1 to 0.5 µM. For the molecule `Cc1ccc(NC(=O)c2cc(C(F)(F)F)ccn2)cc1Nc1nccnc1-c1ncnc2[nH]cnc12` [IA-120, N-(3-(3-(9H-purin-6-yl)pyrazin-2-ylamino)-4-methylphenyl)-4-(trifluoromethyl)picolinamide], the GI50 lay within 0.02 to 0.1 µM. In the case of `Cc1ccc(NC(=O)c2cc(C(F)(F)F)ccn2)cc1Nc1nnccc1-c1ncnc2[nH]cnc12` [IA-121, N-(3-((4-(9H-purin-6-yl)pyridazin-3-yl)amino)-4-methylphenyl)-4-(trifluoromethyl)picolinamide], the GI50 is at least 0.5 µM.

Molecule `COc1nc2c(-c3nccnc3Nc3cc(NC(=O)c4cc(C(F)(F)F)ccn4)ccc3C)ncnc2[nH]1` [IA-122, N-(3-(3-(8-methoxy-9H-purin-6-yl)pyrazin-2-ylamino)-4-methylphenyl)-4-(trifluoromethyl)picolinamide] had a GI50 of 0.02 to 0.1 µM. For `COc1nc2c(-c3cccnc3Nc3cc(NC(=O)c4cc(C(F)(F)F)ccn4)ccc3C)ncnc2[nH]1` [IA-123, N-(3-(3-(8-methoxy-9H-purin-6-yl)pyridin-2-ylamino)-4-methylphenyl)-4-(trifluoromethyl)picolinamide] the value was 0.02 to 0.1 µM. In the case of `Cc1ccc(NC(=O)c2cc(C(F)(F)F)ccn2)cc1Nc1ncccc1-c1ncnc2[nH]c(OCCN(C)C)nc12` [IA-124, N-(3-(3-(8-(2-(dimethylamino)ethoxy)-9H-purin-6-yl)pyridin-2-ylamino)-4-methylphenyl)-4-(trifluoromethyl)picolinamide], the concentration for 50% growth inhibition (GI50) is 0.02 to 0.1 µM.

As for `Cc1ccc(NC(=O)c2cc(C(F)(F)F)ccn2)cc1Nc1ncccc1-c1ncnc2[nH]c(OCCO)nc12` [IA-125, N-(3-(3-(8-(2-hydroxyethoxy)-9H-purin-6-yl)pyridin-2-ylamino)-4-methylphenyl)-4-(trifluoromethyl)picolinamide], the concentration for 50% growth inhibition (GI50) lay within 0.02 to 0.1 µM. For `Cc1nc2c(-c3cccnc3Nc3cc(NC(=O)c4cc(C(F)(F)F)ccn4)ccc3C)ncnc2[nH]1` [IA-126, N-(4-methyl-3-((3-(8-methyl-9H-purin-6-yl)pyridin-2-yl)amino)phenyl)-4-(trifluoromethyl)picolinamide] the value was below 0.02 µM; for `Cc1nc2c(-c3cccnc3Nc3cc(NC(=O)c4ccnc(C(C)(C)C#N)c4)ccc3C)ncnc2[nH]1` [IA-127, 2-(2-cyanopropan-2-yl)-N-(4-methyl-3-((3-(8-methyl-9H-purin-6-yl)pyridin-2-yl)amino)phenyl)isonicotinamide], below 0.02 µM.

Molecule `Cc1nc2c(-c3cccnc3Nc3cc(NC(=O)c4cc(C(F)(F)F)c(F)cn4)ccc3C)ncnc2[nH]1` [IA-128, 5-fluoro-N-(4-methyl-3-((3-(8-methyl-9H-purin-6-yl)pyridin-2-yl)amino)phenyl)-4-(trifluoromethyl)picolinamide] gave a GI50 below 0.02 µM. For `Cc1nc2c(-c3cccnc3Nc3cc(NC(=O)c4cc(C(F)(F)F)c(OCCO)cn4)ccc3C)ncnc2[nH]1` [IA-129, 5-(2-hydroxyethoxy)-N-(4-methyl-3-((3-(8-methyl-9H-purin-6-yl)pyridin-2-yl)amino)phenyl)-4-(trifluoromethyl)picolinamide], the concentration for 50% growth inhibition (GI50) is below 0.02 µM.

In the case of `Cc1nc2c(-c3cccnc3Nc3cc(NC(=O)c4cc(C(O)C(F)(F)F)ccn4)ccc3C)ncnc2[nH]1` (stereo not shown) [IA-130, N-(4-methyl-3-((3-(8-methyl-9H-purin-6-yl)pyridin-2-yl)amino)phenyl)-4-(2,2,2-trifluoro-1-hydroxyethyl)picolinamide], the GI50 is below 0.02 µM. To `Cc1ccc(NC(=O)CC2CCCNCC2)cc1Nc1ncccc1-c1ncnc2[nH]cnc12` (stereo not shown) [IA-131, N-(3-(3-(9H-purin-6-yl)pyridin-2-ylamino)-4-methylphenyl)-2-(azepan-4-yl)acetamide] belongs at least 0.5 µM; to `Cc1ccc(NC(=O)CC2CCCN(C)CC2)cc1Nc1ncccc1-c1ncnc2[nH]cnc12` (stereo not shown) [IA-132, N-(3-(3-(9H-purin-6-yl)pyridin-2-ylamino)-4-methylphenyl)-2-(1-methylazepan-4-yl)acetamide], at least 0.5 µM; to `Cc1ccc(NC(=O)CN2CCCOCC2)cc1Nc1ncccc1-c1ncnc2[nH]cnc12` [IA-133, N-(3-((3-(9H-purin-6-yl)pyridin-2-yl)amino)-4-methylphenyl)-2-(1,4-oxazepan-4-yl)acetamide], at least 0.5 µM. For `Cc1ccc(NC(=O)CN2CCCNCC2)cc1Nc1ncccc1-c1ncnc2[nH]cnc12` [IA-134, N-(3-((3-(9H-purin-6-yl)pyridin-2-yl)amino)-4-methylphenyl)-2-(1,4-diazepan-1-yl)acetamide] the value was at least 0.5 µM; for `Cc1ccc(NC(=O)CN2CCCN(C)CC2)cc1Nc1ncccc1-c1ncnc2[nH]cnc12` [IA-135, N-(3-((3-(9H-purin-6-yl)pyridin-2-yl)amino)-4-methylphenyl)-2-(4-methyl-1,4-diazepan-1-yl)acetamide], at least 0.5 µM. To `Cc1ccc(NC(=O)CC2CCN(C)CCO2)cc1Nc1ncccc1-c1ncnc2[nH]cnc12` (stereo not shown) [IA-136, N-(3-(3-(9H-purin-6-yl)pyridin-2-ylamino)-4-methylphenyl)-2-(4-methyl-1,4-oxazepan-7-yl)acetamide] belongs at least 0.5 µM; to `Cc1ccc(NC(=O)c2cccc(C(F)(F)F)c2)cc1Nc1ncccc1-c1ncnc2[nH]cnc12` [IA-145, N-(3-((3-(9H-purin-6-yl)pyridin-2-yl)amino)-4-methylphenyl)-3-(trifluoromethyl)benzamide], below 0.02 µM. `Cc1nc(-c2cccnc2Nc2cc(NC(=O)c3cc(C(F)(F)F)ccn3)ccc2C)c2nc[nH]c2n1` [IA-150, N-(4-methyl-3-((3-(2-methyl-9H-purin-6-yl)pyridin-2-yl)amino)phenyl)-4-(trifluoromethyl)picolinamide]: the GI50 was at least 0.5 µM.

The molecule `Cc1ccc(NC(=O)c2cc(C(F)(F)F)ccn2)cc1Nc1ncccc1-c1nc(F)nc2[nH]cnc12` [IA-151, N-(3-(3-(2-fluoro-9H-purin-6-yl)pyridin-2-ylamino)-4-methylphenyl)-4-(trifluoromethyl)picolinamide] registered a GI50 of at least 0.5 µM. `Cc1ccc(NC(=O)c2cc(C(F)(F)F)ccn2)cc1Nc1nccc(C)c1-c1ncnc2[nH]cnc12` [IA-152] gave a concentration for 50% growth inhibition (GI50) of at least 0.5 µM. To `Cc1ccc(C(=O)Nc2cccc(C(F)(F)F)c2)cc1Nc1ncccc1-c1ncnc2[nH]cnc12` [II-3, 3-((3-(9H-Purin-6-yl)pyridin-2-yl)amino)-4-methyl-N-(3-(trifluoromethyl)phenyl)benzamide] belongs below 0.02 µM.

(Values after US20240317752A1, “6-SUBSTITUTED-9H-PURINE DERIVATIVES AND RELATED USES” (Black Diamond Therapeutics, Inc., priority 2021, published 2024).)
